The values that follow are results of earlier work, collected in patent publication US8945630B2, “Method of producing and applications of composition of hypochlorous acid” (Aquilabs S.A., priority 2008, dated 2015).

For the data set the following is noted: at 25° C.

Consider `OCl` [Hypochlorous acid], for which the dissociation constant was 2.9×10^−8.
